Results taken from the supplement of paper PMC10307832.

Columns and labels:
Assay in all cases: relative viability (nuclei count vs DMSO), 5 days (fraction); higher = more cells survive
Shikonin + Navitoclax = compound: CC(C)=CC[C@@H](O)C1=CC(=O)c2c(O)ccc(O)c2C1=O [Shikonin] + CC1(C)CCC(c2ccc(Cl)cc2)=C(CN2CCN(c3ccc(C(=O)NS(=O)(=O)c4ccc(N[C@H](CCN5CCOCC5)CSc5ccccc5)c(S(=O)(=O)C(F)(F)F)c4)cc3)CC2)C1 [Navitoclax] (partner 0.5 µM)
Method in brief: (§1)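 Lung cancer cell lines were pin-tool dosed in 1536-well plates on the day after seeding, with either a lone drug or a fixed anchor-drug dose plus five library-drug doses (not always all listed) in √10 steps. Nuclei were counted on 4× images after 5 days. Relative viability is the ratio of treated-well to vehicle-well nuclei counts, with each value a median of duplicate plates.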

[1] = compound: CC(C)N(CCCNC(=O)Nc1ccc(C(C)(C)C)cc1)C[C@H]1O[C@@H](n2ccc3c(N)ncnc32)[C@H](O)[C@@H]1O + N=C(N)NC(=N)NCCc1ccccc1 [Phenformin] (partner 250 µM)
Method in brief: as §1

Shikonin = compound: CC(C)=CC[C@@H](O)C1=CC(=O)c2c(O)ccc(O)c2C1=O [Shikonin]
Method in brief: (§2)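 Only plates meeting two conditions passed: control CV below 25% and at least one doubling. Lung cancer cell lines, kept overnight at 37 °C in 1536-well plates, were pinned with five library-drug doses (not always all listed) √10 apart on vehicle-anchored plates and grown 5 days without medium change. A one-step fix, permeabilisation and Hoechst stain preceded 4× imaging and MetaXpress nuclear counting. Viability equals treated-well nuclei divided by vehicle-well nuclei, as the median over plates.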

[2] = compound: CC(C)N(CCCNC(=O)Nc1ccc(C(C)(C)C)cc1)C[C@H]1O[C@@H](n2ccc3c(N)ncnc32)[C@H](O)[C@@H]1O
Method in brief: as §2

Cell Line | relative viability (Shikonin + Navitoclax; first compound 0.01 µM) | relative viability (Shikonin + Navitoclax; first compound 0.1 µM) | relative viability (Shikonin + Navitoclax; first compound 0.3162 µM) | relative viability (Shikonin + Navitoclax; first compound 1 µM) | relative viability ([1]; first compound 0.08 µM) | relative viability ([1]; first compound 0.253 µM) | relative viability ([1]; first compound 0.8 µM) | relative viability ([1]; first compound 2.53 µM) | relative viability ([1]; first compound 8 µM) | relative viability (Shikonin; 0.01 µM) | relative viability (Shikonin; 0.1 µM) | relative viability (Shikonin; 0.3162 µM) | relative viability (Shikonin; 1 µM) | relative viability ([2]; 0.08 µM) | relative viability ([2]; 0.253 µM) | relative viability ([2]; 2.53 µM) | relative viability ([2]; 8 µM) | relative viability ([2]; 0.8 µM)
LOU-NH91 | 0.662 | 0.646 | 0.736 | 0.664 | 0.685 | 0.712 | 0.441 | 0.65 | 0.671 | 0.984 | 1.04 | 1.04 | 1.02 | 0.981 | 0.908 | 0.979 | 1 | 
NCI-H322M | 1.23 | 1.21 | 1.32 | 1.27 | 0.795 | 0.711 | 0.75 | 0.749 | 0.762 | 0.924 | 0.917 | 0.921 | 1.06 | 0.929 | 0.893 | 0.918 | 0.975 | 0.93
HCC-827 | 1.02 | 1.08 | 0.99 | 0.998 | 0.393 | 0.383 |  | 0.417 | 0.417 | 1.04 | 1.04 | 1.04 | 1.06 | 1.03 | 1.06 | 1.01 | 0.961 | 0.584
NCI-H1975 | 1.16 | 1.37 | 1.33 | 0.91 | 0.393 | 0.387 | 0.202 | 0.393 | 0.338 | 0.956 | 0.946 | 0.955 | 1.05 | 0.844 | 0.837 | 0.843 | 0.743 | 0.594
NCI-H1651 | 1.03 | 0.98 | 1.01 | 1.06 | 0.34 | 0.302 | 0.295 | 0.288 | 0.35 | 1.09 | 0.919 | 1.01 | 1.02 | 0.963 | 0.918 | 1 | 0.957 | 0.92
NCI-H460 | 1.16 | 1.49 | 1.25 | 1.19 | 0.493 | 0.555 | 0.54 | 0.485 | 0.436 | 1.06 | 1.07 | 1.07 | 1.05 | 0.982 | 0.953 | 0.996 | 1.02 | 0.935
LCLC-97TM1 | 0.46 | 0.4 | 0.495 | 0.277 | 0.424 | 0.487 | 0.548 | 0.373 | 0.43 | 0.991 | 1.02 | 1.08 | 0.968 | 1.05 | 1 | 0.903 | 0.989 | 1.07
PC-14 | 1.05 | 1.1 | 1.23 | 1.02 | 0.637 | 0.544 | 0.556 | 0.454 | 0.532 | 1.08 | 1 | 1.12 | 1.11 | 0.975 | 0.981 | 0.967 | 0.904 | 0.951
NCI-H1355 | 0.81 | 0.939 | 0.995 | 0.983 | 0.441 | 0.444 | 0.387 | 0.48 | 0.432 | 0.981 | 1.08 | 1.02 | 1.04 | 0.913 | 0.915 | 1.03 | 0.879 | 0.75
HOP-62 | 1.05 | 1.15 | 1.01 | 1.04 | 0.704 | 0.69 | 0.638 | 0.566 | 0.545 | 1.15 | 1.11 | 1.23 | 1.02 | 1.04 | 1.06 | 0.939 | 0.879 | 0.856
NCI-H2087 | 1.01 | 1.15 | 1.01 | 0.917 | 0.38 | 0.519 | 0.445 | 0.55 | 0.351 | 1.33 | 1.02 | 1.12 | 1.02 | 1.08 | 0.934 | 1.15 | 1.07 | 0.799
